# From patent EP1790349A1
# Legend:
# Rauscher MuLV = assay: Rauscher Murine Virus (Rauscher MuLV) system in vivo, splenomegaly; conditions: rivabirin control, dose not given; in comparison with infected animals that received no treatment
# Shigella dysenteriae = assay type: cell-based; conditions: disc 6: NaCl 400 mg/mL (control)
# Salmonella tifi = assay type: cell-based; conditions: disc 6: NaCl 400 mg/mL (control)
# Brucella suis = assay type: cell-based; conditions: disc 6: NaCl 400 mg/mL (control)
# Streptococcus pneumoniae = conditions: disc 6: NaCl 400 mg/mL (control)
# Streptococcus pyogenes = conditions: disc 6: NaCl 400 mg/mL (control)
# Streptococcus aureus = conditions: disc 6: NaCl 400 mg/mL (control)
# Neisseria gonorrhoeae = conditions: disc 6: NaCl 400 mg/mL (control)
# Neisseria meningitides = conditions: disc 6: NaCl 400 mg/mL (control)
# Pseudomona aeruginosa = conditions: disc 6: NaCl 400 mg/mL (control)
# Shigella flexneri = conditions: disc 6: NaCl 400 mg/mL (control)
# Escherichia coli = conditions: disc 6: NaCl 400 mg/mL (control)
# Proteus vulgaris = conditions: disc 6: NaCl 400 mg/mL (control)
# Haemophilus influenzae = conditions: disc 6: NaCl 400 mg/mL (control)
# Klebsiela = conditions: disc 6: NaCl 400 mg/mL (control)
smiles,measurement,setting,value
NC(=O)c1ncn([C@@H]2O[C@H](CO)[C@@H](O)[C@H]2O)n1 [rivabirin],reduction of the spleen size,Rauscher MuLV,74%
[Cl-].[Na+] [NaCl],inhibitory halos,Shigella dysenteriae,6 mm
same,inhibitory halos,Salmonella tifi,6 mm
same,inhibitory halos,Brucella suis,6 mm
same,inhibitory halos,Streptococcus pneumoniae,6 mm
same,inhibitory halos,Streptococcus pyogenes,6 mm
same,inhibitory halos,Streptococcus aureus,6 mm
same,inhibitory halos,Neisseria gonorrhoeae,14 mm
same,inhibitory halos,Neisseria meningitides,6 mm
same,inhibitory halos,Pseudomona aeruginosa,6 mm
same,inhibitory halos,Shigella flexneri,6 mm
same,inhibitory halos,Escherichia coli,6 mm
same,inhibitory halos,Proteus vulgaris,6 mm
same,inhibitory halos,Haemophilus influenzae,6 mm
same,inhibitory halos,Klebsiela,6 mm
